# Experiment: LD50 in mice, dosed intravenously
# Conditions: mouse, in vivo, iv
structure (smiles),measurement,value
"NC(=NCC(F)(F)F)Nc1ccnc(OCCCO)n1 [Example 1, 4-[2-(2,2,2-trifluoroethyl)guanidino]-2-(3-hydroxypropoxy)pyrimidine]",LD50,~30 mg/kg

# From patent US4451463A, “Alcohol derivatives” (Imperial Chemical Industries PLC, priority 1981, dated 1984)
